One experiment has as its system GLT-1. Nature of the experiment: Immunoblot GLT-1 in mPFC-IL, mPFC-PL, NAc-core, NAc-shell (section B). It counts as in vivo, Male and female alcohol-preferring (P) rats. As to conditions: 100 mg/kg i.p. 5 days. As to the method:
(§1) After 24 hours of receiving the last injection, rats were euthanized by CO2 inhalation followed by decapitation with a guillotine. Brains were harvested and immediately frozen on dry ice and stored at −80° C. Cryostat (Leica) was used to isolate the mPFC subregions (mPFC-IL and mPFC-PL), and subregions of the NAc (NAc-core and NAc-shell). Brains were micro-punctured using the stereotaxic coordinates following the Rat Brain Atlas. The isolated brain regions were stored at −80° C. for subsequent protein detection using Western Blot assay.
(§2) Immunoblot assays were performed to determine the expression of GLT-1, xCT and β-tubulin in mPFC-IL, mPFC-PL, NAc-core, and NAc-shell of all groups as described previously. Briefly, brain samples were homogenized in lysis buffer supplemented with protease inhibitor and total protein was quantified using protein assay (Bio-Rad, Hercules, CA, USA). Equal amount of the samples was loaded on polyacrylamide gel (10-20%).
(§3) Subsequently, proteins were transferred on a PVDF membrane and blocked with 5% milk in Tris-buffered saline Tween-20 (1×TBST) for 30 minutes at room temperature. Membranes were then incubated overnight at 4° C. with one of the following antibodies: rabbit anti-GLT-1 (1:1000, Abcam, AB41621), and/or rabbit anti-xCT (1:1000, Abcam, AB175186). Mouse anti-β-tubulin (1:1000; Cell Signaling D71G5) was used as a loading control antibody. On the following day, membranes were washed five times with 1×TBST followed by incubation with appropriate secondary antibody (1:4000) for 60 minutes at room temperature. Chemiluminescent reagents (Super Signal West Pico, Pierce Inc.) were used to detect proteins using a ChemiDoc imaging system (BioRad, USA).
(§4) GLT-1 and xCT expression were normalized against β-tubulin, a control loading protein. Imaging System and ImageJ software version 1.53a were used to quantify and analyze the expression of GLT-1 and xCT in the subregions of the mPFC and NAc. Data from water-control group were represented as 100% and all other values were expressed relative to this control to evaluate the changes in protein expression.
(§5) The ratios for treated animals in the ethanol/saline and ethanol/MC-100093 groups were normalized to the mean ratios for the control group (water/saline group). The control ratio was set at 100, and the results from each of the treated groups were expressed as a percentage relative to the water/saline group value of 100%. We normalized the ethanol/saline and ethanol/MC-100093 groups data to water/saline group to reduce any differences of contrast with Western blots for each set of groups (control/water/saline, ethanol/saline, and ethanol/MC-100093 groups).
(§6) All statistical analyses were conducted using GraphPad Prism (10). Two-way (mixed) ANOVA followed by Bonferroni multiple comparison post-hoc test was performed to analyze daily ethanol intake, average daily water intake and body weight. One-way ANOVA followed by Newman-Keuls post hoc tests were used to analyze Western blot data. All statistical analyses data were reported as a p<0.05 of significance.
For orientation: Immunoblotting shows a protein as a band on a membrane.

A further experiment relates to xCT. In words: Immunoblot xCT in mPFC-IL, mPFC-PL, NAc-core, NAc-shell (section B). It counts as in vivo, Male and female alcohol-preferring (P) rats. The settings on record: 100 mg/kg i.p. 5 days. As to the method:
as §1, §2, §3, §4, §5, §6

The next experiment deals with PPAR-α. Nature of the experiment: Western blot PPAR-α expression in NAc-core, NAc-shell and liver. The settings on record: MC-100093 50 mg/kg or ceftriaxone 200 mg/kg i.p. 5 days; among all groups. The format is in vivo, P rats. As to the method:
We used micro-punch procedure to dissect the subregions of the NAc such as NAc-core and NAc-shell as well as the subregions of prefrontal cortex such as infralimbic (IL) and prelimbic (PL) from the brain on day 6 after the last injection day. P rats were removed from the cage and rapidly euthanized by CO2 inhalation followed by rapid decapitation with a guillotine. Brains were isolated and immediately frozen on dry ice and stored at −80° C. The stereotaxic coordinates provided by Paxinos and colleague's rat brain stereotactic atlas was used to isolate NAc-core and NAc-shell using a cryostat apparatus (−20° C.), which then kept at −80° C. for later western blot analyses.
Western Blot assay was performed to measure changes in the expression of GLT-1, xCT, mGluR1, mGluR5, PPAR-α, PPARγ, GAPDH and β-tubulin in the NAc-core and NAc-shell as described in previous publications. A lysis buffer containing protease and phosphatase inhibitors was used to generate a homogenate of liver, Nac-core, and Nac-shell samples. The amount of protein was quantified using a detergent compatible protein assay (Bio-Rad, Hercules, CA, USA) for each sample. Samples were mixed with laemmli dye and loaded with equal amounts on polyacrylamide gels (10%), which separated the proteins using electrophoresis. After that, polyvinylidene difluoride (PVDF) membranes were used to transfer the proteins electrophoretically from the gels. Membranes were incubated in 5% free-fat milk in Tris-buffered saline with Tween-20 (TBST) for 30-60 minutes at room temperature. Membranes were then incubated with appropriate primary antibodies overnight at 4° C.: rabbit anti-GLT-1 (1:5000, Abcam, ab41621), rabbit anti-xCT (1:2000, Abcam, ab175186), rabbit anti-mGluR1 (1:1000, Abcam, ab82211), rabbit anti-mGluR5 (1:1000, Abcam, ab76316), rabbit anti-PPAR-α (1:1000, Abcam, ab24509), and rabbit anti-PPARγ (1:1000, Abcam, ab209350). Mouse anti-β-tubulin (1:1000; BioLegend) was used as a loading control antibody for the brain samples and rabbit anti-GAPDH (1:5000; cell signaling) was used as a loading control antibody for the liver samples. Membranes were washed five times on the next day with TBST followed by incubation with appropriate secondary antibody (1:5000) for 90 minutes at room temperature. Chemiluminescent reagents (Super Signal West Pico, Pierce Inc.) were used to detect the proteins using a GeneSys imaging system to develop the digitized blot images. Water-control group data were represented as 100% and all other values were expressed relative to control group to detect changes in the expression of the protein of interest in the brain and liver samples.
All statistical analyses were conducted with Graphpad Prism software, with p-values of 0.05 or less being statistically significant. […]

Setting [1] is: female P rats, vs ethanol-saline and water-saline.
The mark [2] stands for this setting: female and male P rats, vs ethanol-saline groups, 100 mg/kg.
The mark [3] stands for this setting: male P rats, vs ethanol-saline and water-saline.

Structures are written as SMILES. Entries after “also recorded” stand apart in the source; their conditions may differ.

For the compound `C[C@@H](O)[C@H]1C(=O)N[C@@H]1[C@@H](C)C(=O)N1CCN(C)CC1` [MC-100093], in the experiment with GLT-1 (female P rats), the “GLT-1 expression in the NAc-core” value is recorded as “significant upregulation of GLT-1 expression” and the “GLT-1 expression in the NAc-shell” value is listed as “significant upregulation of GLT-1 expression”. For the same compound, in the experiment on GLT-1 (setting [1]), the “GLT-1 expression in the mPFC-IL” value was “upregulated GLT-1 expression” and the “GLT-1 expression in the mPFC-PL” value is “significant upregulation of GLT-1 expression”. In addition, in the experiment on GLT-1 (setting [2]), the “GLT-1 expression in mPFC and NAc subregions (summary)” value is “upregulated GLT-1 and xCT expression in mPFC and NAc subregions; also recorded: increasing GLT-1 and xCT expression in the mPFC and NAc subregions”. For the same compound, in the experiment on GLT-1 (male P rats), the “GLT-1 expression in the mPFC-IL” value is given as “attenuated ethanol-induced downregulation of GLT-1 expression”. In the experiment on GLT-1 (setting [3]), the “GLT-1 expression in the NAc-core” value was “significantly increased” and the “GLT-1 expression in the NAc-shell” value is on record as “significantly increased”. For the same compound, the “GLT-1 expression in the mPFC-PL” value in the experiment on GLT-1 (male P rats, vs ethanol-saline and water-saline, 100 mg/kg) is listed as “significantly upregulated GLT-1 expression; also recorded: significantly increased”. Moreover, in the experiment on xCT (setting [1]), the “xCT expression in the NAc-core” value is “significant upregulation of xCT expression”, the “xCT expression in the NAc-shell” value is given as “significant upregulation in the expression of xCT”, the “xCT expression in the mPFC-IL” value is on record as “significant upregulation in the expression of xCT” and the “xCT expression in the mPFC-PL” value is reported as “significant upregulation of the expression of xCT”. The “xCT expression in mPFC and NAc subregions (summary)” value in the experiment with xCT (setting [2]) is “upregulated GLT-1 and xCT expression in mPFC and NAc subregions; also recorded: upregulated xCT expression in both the NAc and the mPFC subregions in male and female P rats; also recorded: increasing GLT-1 and xCT expression in the mPFC and NAc subregions”. In the experiment on xCT (male P rats), the “xCT expression in the NAc-core” value is “significantly increased the expression of xCT”, the “xCT expression in the NAc-shell” value is reported as “increased the expression of xCT”, the “xCT expression in the mPFC-IL” value was “significantly increased the expression of xCT” and the “xCT expression in the mPFC-PL” value is “significantly increased the expression of xCT”. Moreover, in the experiment with PPAR-α, the “Protein expression of PPAR-α in the NAc-core” value is given as “non-significant differences; also recorded: did not detect significant changes” and the “Protein expression of PPAR-α in the NAc-shell” value is “non-significant differences; also recorded: did not detect significant changes”.
